Experimental data from BindingDB's records for doi:10.1021/jm980621r (Ligand Pharmaceuticals, 1999).

Legend:
[1] = target: T1, Retinoic acid receptor RXR-beta (Homo sapiens, UniProt P28702); assay: Transcriptional activity was evaluated in CV-1 cells transfected with expression vector for Retinoic acid receptor RXR-beta
T1 sequence (P28702 whole entry): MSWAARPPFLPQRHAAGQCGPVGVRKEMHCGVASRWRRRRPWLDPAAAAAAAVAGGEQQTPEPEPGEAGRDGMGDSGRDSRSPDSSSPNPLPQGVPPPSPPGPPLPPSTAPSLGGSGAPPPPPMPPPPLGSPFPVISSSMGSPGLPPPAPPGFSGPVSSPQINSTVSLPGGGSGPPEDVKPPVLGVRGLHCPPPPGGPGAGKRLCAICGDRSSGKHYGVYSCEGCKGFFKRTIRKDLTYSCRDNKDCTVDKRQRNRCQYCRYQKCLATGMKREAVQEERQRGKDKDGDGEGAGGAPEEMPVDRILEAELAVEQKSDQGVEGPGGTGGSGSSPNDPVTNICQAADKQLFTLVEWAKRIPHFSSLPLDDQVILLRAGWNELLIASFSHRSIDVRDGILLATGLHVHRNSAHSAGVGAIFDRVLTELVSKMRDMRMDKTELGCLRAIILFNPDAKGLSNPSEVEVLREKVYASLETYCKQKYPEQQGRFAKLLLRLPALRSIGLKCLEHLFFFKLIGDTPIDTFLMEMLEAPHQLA

[2] = target: T2, Retinoic acid receptor RXR-gamma (Homo sapiens, UniProt P48443); assay: Transcriptional activity was evaluated in CV-1 cells transfected with expression vector for Retinoic acid receptor RXR-gamma
T2 sequence (P48443 whole entry): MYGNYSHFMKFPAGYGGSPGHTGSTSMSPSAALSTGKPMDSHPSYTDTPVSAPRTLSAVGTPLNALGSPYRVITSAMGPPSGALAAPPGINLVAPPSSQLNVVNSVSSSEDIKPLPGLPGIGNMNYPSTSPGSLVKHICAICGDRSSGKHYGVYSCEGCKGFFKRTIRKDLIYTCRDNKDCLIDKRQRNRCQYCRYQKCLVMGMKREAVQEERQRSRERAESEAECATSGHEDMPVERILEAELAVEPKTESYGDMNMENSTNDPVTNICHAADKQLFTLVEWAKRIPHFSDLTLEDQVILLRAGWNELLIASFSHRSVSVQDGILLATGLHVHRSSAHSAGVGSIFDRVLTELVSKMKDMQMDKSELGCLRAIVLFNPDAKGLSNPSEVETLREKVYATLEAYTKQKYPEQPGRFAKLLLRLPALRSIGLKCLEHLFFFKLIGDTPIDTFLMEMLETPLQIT

[3] = target: T3, Retinoic acid receptor RXR-alpha (Homo sapiens, UniProt P19793); assay: Transcriptional activity was evaluated in CV-1 cells transfected with expression vector for Retinoic acid receptor RXR-alpha
T3 sequence (P19793 whole entry): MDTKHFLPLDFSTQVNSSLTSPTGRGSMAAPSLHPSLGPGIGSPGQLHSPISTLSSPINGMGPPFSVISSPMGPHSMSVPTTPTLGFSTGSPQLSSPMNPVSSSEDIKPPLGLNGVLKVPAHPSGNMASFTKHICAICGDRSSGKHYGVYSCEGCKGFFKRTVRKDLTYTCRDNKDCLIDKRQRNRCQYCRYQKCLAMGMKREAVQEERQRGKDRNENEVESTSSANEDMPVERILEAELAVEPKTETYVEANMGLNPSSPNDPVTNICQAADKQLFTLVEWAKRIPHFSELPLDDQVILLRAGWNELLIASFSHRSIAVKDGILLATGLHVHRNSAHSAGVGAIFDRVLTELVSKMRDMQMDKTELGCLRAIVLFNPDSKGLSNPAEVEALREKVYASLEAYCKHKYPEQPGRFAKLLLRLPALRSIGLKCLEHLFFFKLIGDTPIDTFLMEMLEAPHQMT

[4] = target: T1, Retinoic acid receptor RXR-beta; assay: Binding affinity towards recombinantly expressed Retinoic acid receptor RXR-beta in baculoviral system, by using 5 nM [3H]targretin in a competitive binding assay

`CCO/N=C(/c1ccc(C(=O)O)cc1)c1cc2c(cc1C)C(C)(C)CCC2(C)C` was tested, and the EC50 [1] was 165 nM, the EC50 [2] was 34 nM and the EC50 [3] was 46 nM. It also gave a Ki [4] of 120 nM.
